Test results taken from patent publication US4994376A, “Detection of bacteroides gingivalis” (priority 1987, dated 1991).
Peptide text beside a SMILES is read from it. * marks the point of attachment. βNA = c1ccc2cc(N*)ccc2c1

How the values were obtained:
Type in all cases: biochemical
[1] = tested on: Capnocytophaga sp.; conditions: strain JD3-5; β-naphthylamine liberated after 60 minutes, 37° C.
In short: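 Hydrolysis of N-CBz-glycyl-glycyl-L-arginine-β-naphthylamide over 1 h at 37 °C, then colour developed with Fast Garnet GBC (0.5 mg/ml) in 1M acetate pH 4.2 with 10% Tween 20 for 15 min at room temperature. Absorbance read at 525 nm against an enzyme-free control; activity given as nmol β-naphthylamine released in 60 min.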

[2] = tested on: B. corporis; test: Aminopeptidase activity on β-naphthylamide substrates; conditions: strain ATCC 33547; β-naphthylamine liberated after 60 minutes, 37° C.
Description: (§1) The enzyme activity was measured by the chromogenic properties of N-CBz-glycyl-glycyl-L-arginine-β-naphthylamide which upon hydrolysis gives a visible color. The aminopeptidase activities listed in the table reflect the nanomoles of β-naphthylamine liberated after 60 minutes under the conditions described below.
(§2) After mixing, the solution is incubated for 1 hour at 37° C. and then 0.4 ml of a solution of stabilized diazonium salt, Fast Garnet GBC (0.5 mg/ml) in a 1M acetic acid buffer (pH 4.2), containing 10% Tween 20 was added to the mixture. After standing for 15 minutes at room temperature, the color reaction can be read manually by comparison with standard solutions or the absorbancy can be determined using a spectrophotometer at 525 nm. The reaction mixture without enzyme solution is used as a control.

[3] = tested on: B. denticola; test: as above; conditions: strain ATCC 33185; β-naphthylamine liberated after 60 minutes, 37° C.
Description: as §1, §2

[4] = tested on: B. intermedius; test: as above; conditions: strain ATCC 25611; β-naphthylamine liberated after 60 minutes, 37° C.
Description: as §1, §2

[5] = tested on: B. melaninogenicus; test: as above; conditions: strain ATCC 25845; β-naphthylamine liberated after 60 minutes, 37° C.
Description: as §1, §2

[6] = tested on: C. sputigena; test: as above; conditions: strain ATCC 33123; β-naphthylamine liberated after 60 minutes, 37° C.
Description: as §1, §2

[7] = tested on: Veillonella alcalesens; test: as above; conditions: strain ATCC 11748; β-naphthylamine liberated after 60 minutes, 37° C.
In short: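 Chromogenic assay using N-CBz-glycyl-glycyl-L-arginine-β-naphthylamide, incubated 1 hour at 37° C. Liberated β-naphthylamine is coupled with Fast Garnet GBC (0.5 mg/ml) in 1M acetic acid pH 4.2 with 10% Tween 20 for 15 min at room temperature, then read at 525 nm.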

NC(=O)[C@@H](N)CCC(=O)O [α-Glu, α -glutamine]
Aminopeptidase activity [1]: 0 nmol | Aminopeptidase activity [2]: 0 nmol | Aminopeptidase activity [3]: 0 nmol | Aminopeptidase activity [4]: 0 nmol | Aminopeptidase activity [5]: 1 nmol | Aminopeptidase activity [6]: 7 nmol | Aminopeptidase activity [7]: 0 nmol

CC(C)C[C@H](NC(=O)[C@@H]1CCCN1C(=O)CN)C(=O)Nc1ccc2ccccc2c1 [Gly-Pro-Leu] (H-Gly-Pro-Leu-βNA)
Aminopeptidase activity [1]: 0 nmol | Aminopeptidase activity [2]: 2 nmol | Aminopeptidase activity [3]: 1 nmol | Aminopeptidase activity [4]: 0 nmol | Aminopeptidase activity [5]: 2 nmol | Aminopeptidase activity [6]: 28 nmol | Aminopeptidase activity [7]: 0 nmol

CC(C)C[C@H](N)C(=O)NCC(=O)O [Leu-Gly, Leucyl-glycine] (H-Leu-Gly-OH)
Aminopeptidase activity [1]: 0 nmol | Aminopeptidase activity [2]: 67 nmol | Aminopeptidase activity [3]: 42 nmol | Aminopeptidase activity [4]: 10 nmol | Aminopeptidase activity [5]: 53 nmol | Aminopeptidase activity [6]: 20 nmol

Cl.N=C(N)NCCC[C@H](NC(=O)CNC(=O)CNC(=O)OCc1ccccc1)C(=O)Nc1ccc2ccccc2c1 [N-CBz-Gly-Gly-Arg, N-carbobenzoxy-glycyl-glycyl-L-arginine-β-naphthylamide hydrochloride]
Aminopeptidase activity [1]: 0 nmol | Aminopeptidase activity [2]: 1 nmol | Aminopeptidase activity [3]: 0 nmol | Aminopeptidase activity [4]: 0 nmol | Aminopeptidase activity [5]: 0 nmol | Aminopeptidase activity [6]: 5 nmol | Aminopeptidase activity [7]: 0 nmol

CSCCC(N)C(=O)Nc1ccc2ccccc2c1 (racemic)
Aminopeptidase activity [1]: 28 nmol | Aminopeptidase activity [2]: 0 nmol | Aminopeptidase activity [3]: 0 nmol | Aminopeptidase activity [4]: 0 nmol | Aminopeptidase activity [5]: 1 nmol | Aminopeptidase activity [6]: 117 nmol | Aminopeptidase activity [7]: 0 nmol

C[C@H](N)C(=O)N[C@@H](C)C(=O)N[C@@H](Cc1ccccc1)C(=O)Nc1ccc2ccccc2c1 [Ala-Ala-Phe] (H-Ala-Ala-Phe-βNA)
Aminopeptidase activity [1]: 0 nmol | Aminopeptidase activity [2]: 0 nmol | Aminopeptidase activity [3]: 2 nmol | Aminopeptidase activity [4]: 0 nmol | Aminopeptidase activity [5]: 1 nmol | Aminopeptidase activity [6]: 44 nmol | Aminopeptidase activity [7]: 1 nmol
